Literature values in patent US11304900B1, “Transparent colloidal vitamin supplement blend” (Quicksilver Scientific, Inc., priority 2017, dated 2022).
Read-outs that look alike come from different tables or passages of the source.

Legend:
[1] = not given; remark: listed apart in the source
[2] = in vivo

change in serum levels ([2]; iv)	change in blood serum magnesium concentration ([2]; po)	SMILES	mean peak plasma level (IV administration of 50 g/day) [mg/dL]	increase of plasma concentration (daily intake increased from 200 mg/day to 2,500 mg/day) [%]	highest blood serum level observed (oral administration of pharmacological doses) [mg/dL]	plasma concentration (oral daily intake 200 mg/day) [mg/dL]	plasma concentration (oral daily intake 2,500 mg/day) [mg/dL]	blood serum concentration at which antiviral effect has been demonstrated [1] [mg/dL]
–	–	O=C1O[C@H]([C@@H](O)CO)C(O)=C1O [Vitamin C, ascorbic acid]	80	25	9.3	1.2	1.5	10 to 15
double or triple	little or no change	[Mg+2] [magnesium]	–	–	–	–	–	–
